According to the supplement of paper PMC11061612:

Key:
Assay in all cases: combination Emax (second highest fraction inhibited in the dose matrix, 72 h); higher = more inhibition; extreme values may be limits of the assay
[1] = tested on: ESS-1 (Other Solid Carcinomas)
Procedure, shortened: (§1)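 After 24 hours at 37°C and 5% CO2 in 1536-well plates, cells in DMEM/F12 or RPMI plus 10% FBS received two-drug dose matrices for 72 hours. Viability came from CellTiter-Glo 2.0 luminescence and was scaled as inhibition, anchored at 0 by vehicle wells and at 1 by blank wells. Combination Emax is taken as the second-highest inhibition in the matrix, and Bliss excess as the observed combination effect less EA + EB − EA·EB, with EA and EB the single-agent effects.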

[2] = tested on: ALL-PO (B-Lymphoblastic Leukemia)
Procedure, shortened: as §1

NCI-H2052 (Mesothelioma) = tested on: NCI-H2052 (Mesothelioma)
Procedure, shortened: as §1

[3] = tested on: NCI-H1568 (Lung Adenocarcinoma)
Procedure, shortened: as §1

[4] = tested on: BE-13 (T-Lymphoblastic Leukemia)
Procedure, shortened: as §1

[5] = tested on: HuCCT1 (Biliary Tract Carcinoma)
Procedure, shortened: as §1

[6] = tested on: HuH-7 (Hepatocellular Carcinoma)
Procedure, shortened: as §1

[7] = tested on: WSU-NHL (B-Cell Non-Hodgkin's Lymphoma)
Procedure, shortened: as §1

[8] = tested on: NCI-H524 (Small Cell Lung Carcinoma)
Procedure, shortened: as §1

LOXIMVI (Melanoma) = tested on: LOXIMVI (Melanoma)
Procedure, shortened: as §1

[9] = tested on: OVCAR-5 (Ovarian Carcinoma)
Procedure, shortened: as §1

[10] = tested on: SNU-449 (Hepatocellular Carcinoma)
Procedure, shortened: as §1

[11] = tested on: TGBC1TKB (Biliary Tract Carcinoma)
Procedure, shortened: as §1

[12] = tested on: SW1710 (Bladder Carcinoma)
Procedure, shortened: as §1

[13] = tested on: LNZTA3WT4 (Low Grade Glioma)
Procedure, shortened: as §1

[14] = tested on: YAPC (Pancreatic Carcinoma)
Procedure, shortened: as §1

A673 (Ewing's Sarcoma) = tested on: A673 (Ewing's Sarcoma)
Procedure, shortened: as §1

[15] = tested on: SNU-16 (Gastric Carcinoma)
Procedure, shortened: as §1

NCI-H2722 (Mesothelioma) = tested on: NCI-H2722 (Mesothelioma)
Procedure, shortened: as §1

[16] = tested on: OV-56 (Ovarian Carcinoma)
Procedure, shortened: as §1

SMILES | combination Emax [1] | combination Emax [2] | combination Emax (NCI-H2052 (Mesothelioma)) | combination Emax [3] | combination Emax [4] | combination Emax [5] | combination Emax [6] | combination Emax [7] | combination Emax [8] | combination Emax (LOXIMVI (Melanoma)) | combination Emax [9] | combination Emax [10] | combination Emax [11] | combination Emax [12] | combination Emax [13] | combination Emax [14] | combination Emax (A673 (Ewing's Sarcoma)) | combination Emax [15] | combination Emax (NCI-H2722 (Mesothelioma)) | combination Emax [16]
COc1cccc(OCCCN)c1-c1cc(Nc2cnc(C#N)cn2)n[nH]1 [Prexasertib] + O=C(c1cc(Cc2n[nH]c(=O)c3ccccc23)ccc1F)N1CCN(C(=O)C2CC2)CC1 [Olaparib] (first compound max 1 µM, 7x7, partner max 10 µM) | 1 | 0.979 | 0.589 | 0.481 | 0.978 | 0.844 | 0.3 | 1 | 0.929 | 0.788 | 0.693 | 0.234 | 0.446 | 0.761 | 0.885 | 0.597 | 0.923 | 1 | 0.234 | 0.89
CN(CCO)CC[C@H](CSc1ccccc1)Nc1ccc(S(=O)(=O)NC(=O)c2ccc(N3CCC([C@@H](O)c4ccccc4-c4ccc(Cl)cc4)CC3)cc2)cc1S(=O)(=O)C(F)(F)F [AZD4320] + C[C@@H](Nc1cc(F)cc(F)c1)c1cc(C(=O)N(C)C)cc2c(=O)cc(N3CCOCC3)oc12 [AZD8186] (first compound max 1 µM, 7x7, partner max 3 µM) | 0.825 | 1 | 0.262 | 0.344 | 1 | 0.35 | 0.583 | 1 | 0.892 | 0.507 | 0.351 | 0.313 | 0.802 | 0.373 | 0.247 | 0.237 | 0.971 | 0.658 | 0.555 | 0.277
C=CCn1c(=O)c2cnc(Nc3ccc(N4CCN(C)CC4)cc3)nc2n1-c1cccc(C(C)(C)O)n1 [AZD1775] + C[C@@H]1COCCN1C2=NC(=NC(=C2)C3(CC3)[S@](=N)(=O)C)C4=C5C=CNC5=NC=C4 [AZD6738] (first compound max 1 µM, partner max 10 µM) | 1 | 0.977 | 0.488 | 0.487 | 1 | 0.861 | 0.487 | 1 | 0.97 | 0.883 | 0.782 | 0.409 | 0.502 | 0.713 | 0.9 | 0.492 | 0.907 | 0.989 | 0.403 | 0.849
CCc1c2c(nc3ccc(O)cc13)-c1cc3c(c(=O)n1C2)COC(=O)[C@]3(O)CC [SN-38] + CN(C)CCCOc1ccc(-c2ccc3ncc4c(c3c2)n(C2CCOCC2)c(=O)n4C)cn1 [AZD0156] (first compound max 0.3 µM, 7x7, partner max 1 µM) | 1 | 0.985 | 0.837 | 0.474 | 0.748 | 0.508 | 0.149 | 1 | 0.608 | 0.784 | 0.567 | 0.196 | 0.366 | 0.312 | 0.449 | 0.51 | 0.996 | 0.927 | 0.301 | 0.88
Cn1cnc2c(F)c(Nc3ccc(Br)cc3Cl)c(C(=O)NOCCO)cc21 [Selumetinib] + C=CCn1c(=O)c2cnc(Nc3ccc(N4CCN(C)CC4)cc3)nc2n1-c1cccc(C(C)(C)O)n1 [AZD1775] (first compound max 10 µM, partner max 1 µM) | 0.936 | 0.978 | 0.284 | 0.489 | 1 | 0.793 | 0.327 | 0.854 | 0.617 | 0.854 | 0.58 | 0.129 | 0.233 | 0.264 | 0.57 | 0.396 | 0.203 | 0.802 | 0.304 | 0.0799
CN(CCO)CC[C@H](CSc1ccccc1)Nc1ccc(S(=O)(=O)NC(=O)c2ccc(N3CCC([C@@H](O)c4ccccc4-c4ccc(Cl)cc4)CC3)cc2)cc1S(=O)(=O)C(F)(F)F [AZD4320] + Cn1cnc2c(F)c(Nc3ccc(Br)cc3Cl)c(C(=O)NOCCO)cc21 [Selumetinib] (first compound max 1 µM, 7x7, partner max 3 µM) | 0.851 | 1 | 0.262 | 0.444 | 0.995 | 0.571 | 0.55 | 0.885 | 0.84 | 0.689 | 0.613 | 0.221 | 0.679 | 0.315 | 0.329 | 0.194 | 0.971 | 0.649 | 0.508 | 0.304
CC1(C)CCC(CN2CCN(c3ccc(C(=O)NS(=O)(=O)c4ccc(NCC5CCOCC5)c([N+](=O)[O-])c4)c(Oc4cnc5[nH]ccc5c4)c3)CC2)=C(c2ccc(Cl)cc2)C1 [Venetoclax] + C1CN(CCC1(C(=O)N[C@@H](CCO)C2=CC=C(C=C2)Cl)N)C3=NC=NC4=C3C=CN4 [Capivasertib] (first compound max 1 µM, 7x7, partner max 3 µM) | 0.891 | 0.669 | 0.329 | 0.133 | 0.379 | 0.24 | 0.17 | 0.977 | 0.166 | 0.247 | 0.262 | 0.222 | 0.309 | 0.23 | 0.508 | 0.124 | 0.588 | 0.189 | 0.162 | 0.153
CN(C)CCCOc1ccc(-c2ccc3ncc4c(c3c2)n(C2CCOCC2)c(=O)n4C)cn1 [AZD0156] + CCN(CCO)CCCOc1ccc2c(Nc3cc(CC(=O)Nc4cccc(F)c4)[nH]n3)ncnc2c1 [AZD2811] (first compound max 1 µM, 7x7, partner max 1 µM) | 0.606 | 0.977 | 0.284 | 0.131 | 0.674 | 0.137 | 0.0893 | 0.879 | 0.973 | 0.4 | 0.137 | 0.0548 | 0.0674 | 0.0832 | 0.105 | 0.137 | 0.75 | 0.593 | 0.146 | 0.062
COc1cccc(OCCCN)c1-c1cc(Nc2cnc(C#N)cn2)n[nH]1 [Prexasertib] + CCc1c2c(nc3ccc(O)cc13)-c1cc3c(c(=O)n1C2)COC(=O)[C@]3(O)CC [SN-38] (first compound max 1 µM, 7x7, partner max 0.3 µM) | 1 | 0.993 | 0.853 | 0.848 | 1 | 0.875 | 0.861 | 1 | 1 | 0.875 | 0.89 | 0.531 | 0.632 | 0.86 | 0.949 | 0.653 | 0.998 | 1 | 0.471 | 0.996
CCN(CCO)CCCOc1ccc2c(Nc3cc(CC(=O)Nc4cccc(F)c4)[nH]n3)ncnc2c1 [AZD2811] + C[C@@H]1COCCN1C2=NC(=NC(=C2)C3(CC3)[S@](=N)(=O)C)C4=C5C=CNC5=NC=C4 [AZD6738] (first compound max 1 µM, 7x7, partner max 10 µM) | 0.97 | 0.979 | 0.359 | 0.397 | 0.732 | 0.773 | 0.293 | 0.967 | 1 | 0.746 | 0.698 | 0.176 | 0.383 | 0.398 | 0.754 | 0.288 | 0.852 | 0.974 | 0.326 | 0.609
COc1nnc2ccc(N3CCC(c4ccc(OCCN5CCN(C)C(=O)[C@H]5C)cc4)CC3)nn12 [AZD5153] + CCN(CCO)CCCOc1ccc2c(Nc3cc(CC(=O)Nc4cccc(F)c4)[nH]n3)ncnc2c1 [AZD2811] (first compound max 1 µM, 7x7, partner max 1 µM) | 0.809 | 1 | 0.395 | 0.283 | 0.92 | 0.498 | 0.463 | 0.934 | 0.97 | 0.861 | 0.545 | 0.298 | 0.307 | 0.33 | 0.457 | 0.342 | 0.616 | 0.868 | 0.521 | 0.283
NC1(C(=O)N[C@@H](CCO)c2ccc(Cl)cc2)CCN(c2ncnc3[nH]ccc23)CC1 [Capivasertib] + CC(=O)c1c(C)c2cnc(Nc3ccc(N4CCNCC4)cn3)nc2n(C2CCCC2)c1=O [Palbociclib] (first compound max 10 µM, 7x7, partner max 10 µM) | 0.593 | 0.688 | 0.419 | 0.357 | 0.507 | 0.43 | 0.23 | 0.899 | 0.666 | 0.688 | 0.455 | 0.379 | 0.344 | 0.447 | 0.562 | 0.281 | 0.271 | 0.623 | 0.326 | 0.41
